Each structure is given as a SMILES string.

The first assay addresses T1, SIRT1 (Homo sapiens, UniProt Q96EB6).
T1 sequence (Q96EB6 1-747): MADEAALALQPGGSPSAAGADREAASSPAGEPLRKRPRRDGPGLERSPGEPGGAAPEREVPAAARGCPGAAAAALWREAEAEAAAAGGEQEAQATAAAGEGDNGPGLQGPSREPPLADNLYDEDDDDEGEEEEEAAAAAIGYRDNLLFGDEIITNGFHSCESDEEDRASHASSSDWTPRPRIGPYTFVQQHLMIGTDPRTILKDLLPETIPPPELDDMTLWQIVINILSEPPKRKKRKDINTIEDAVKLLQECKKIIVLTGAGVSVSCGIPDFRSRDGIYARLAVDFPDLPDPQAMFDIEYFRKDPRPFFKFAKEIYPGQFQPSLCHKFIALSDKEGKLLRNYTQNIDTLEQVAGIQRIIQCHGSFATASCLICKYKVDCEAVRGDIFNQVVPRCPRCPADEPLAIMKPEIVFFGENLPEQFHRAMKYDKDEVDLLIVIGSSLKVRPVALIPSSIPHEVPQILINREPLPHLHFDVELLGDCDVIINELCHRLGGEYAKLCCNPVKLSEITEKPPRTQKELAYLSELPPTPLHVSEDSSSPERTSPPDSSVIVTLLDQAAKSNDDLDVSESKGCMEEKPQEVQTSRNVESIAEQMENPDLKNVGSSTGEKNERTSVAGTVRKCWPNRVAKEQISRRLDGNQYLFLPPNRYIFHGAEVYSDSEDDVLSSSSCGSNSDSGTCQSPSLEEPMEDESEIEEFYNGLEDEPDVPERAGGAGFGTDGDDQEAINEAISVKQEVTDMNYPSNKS
The experiment in a line: TAMRA based mass spectrometry assay of SIRT1 activity. To be noted: concentration of test compound giving 150% activation of SIRT1; TAMRA peptide substrate. It is filed as biochemical. Summed up: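 Deacetylation of a biotinylated, TAMRA-tagged p53-based peptide (0.5 μM) by 10 nM His-tagged SIRT1 with 120 μM βNAD+, 25 °C for 25 min, pH 8 Tris-acetate buffer, across a compound concentration range. Quenched by formic acid and read by mass spec as product peptide or OAADPR; activity relative to DMSO reactions, nicotinamide defining maximal inhibition.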
In the case of `O=C(Nc1cccnc1)c1cnc2ccc(-c3cccc(C(F)(F)F)c3)nn12` [Compound 2], the “TAMRA EC1.5 (μM)” value is recorded as “B (EC1.5 1-25 μM)”.
Still for that read-out and setting: the value for `O=C(Nc1cccc(CN2CCOCC2)n1)c1cnc2ccc(-c3cccc(C(F)(F)F)c3)nn12` [Compound 5] was “A (EC1.5<1 μM)”.

The same assay, now with this note: percent maximum fold activation of SIRT1; TAMRA peptide substrate; read-out: TAMRA % Fold Act.
As for `O=C(Nc1cccnc1)c1cnc2ccc(-c3cccc(C(F)(F)F)c3)nn12` [Compound 2], the Emax is less than 350%.
With `O=C(Nc1cccc(CN2CCOCC2)n1)c1cnc2ccc(-c3cccc(C(F)(F)F)c3)nn12` [Compound 5], the Emax is not below 350%.

The target of a further assay is T1, SIRT1. The experiment in a line: Trp mass spectrometry assay of SIRT1 activity. Type of assay: biochemical. Conditions: concentration of test compound giving 150% activation of SIRT1; Trp peptide substrate. Put shortly: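 Activation readout: EC1.5 (concentration raising activity 50% over control) and percent maximum activation, from mass-spec quantitation of OAADPR or deacetylated Trp peptide. Reaction: 0.5 μM acetylated Trp peptide, 120 μM βNAD+, 10 nM bacterially expressed N-His SIRT1, pH 7.5 HEPES buffer with […], 25 min at 25° C.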
With `O=C(Nc1cccnc1)c1cnc2ccc(-c3cccc(C(F)(F)F)c3)nn12` [Compound 2], the “Trp EC1.5 (μM)” value is “A (EC1.5<1 μM)”.
For the compound `O=C(Nc1cccc(CN2CCOCC2)n1)c1cnc2ccc(-c3cccc(C(F)(F)F)c3)nn12` [Compound 5], the “Trp EC1.5 (μM)” value is given as “B (EC1.5 1-25 μM)”.

The same assay, now with this note: percent maximum fold activation of SIRT1; Trp peptide substrate; read-out: Trp % Fold Act.
For `O=C(Nc1cccnc1)c1cnc2ccc(-c3cccc(C(F)(F)F)c3)nn12` [Compound 2], the Emax was not below 350%.
Regarding `O=C(Nc1cccc(CN2CCOCC2)n1)c1cnc2ccc(-c3cccc(C(F)(F)F)c3)nn12` [Compound 5], the Emax was less than 350%.
Still for that read-out and setting: the value for `CC1CCCN1c1ccn2ncc(C(=O)Nc3cccnc3)c2n1` (stereo not shown) [Compound 1044] was not below 350%.
Consider `Cc1cncc(NC(=O)c2cnn3ccc(N4CCCC4C)nc23)c1` (stereo not shown) [Compound 1045], for which the Emax is less than 350%.
Same read-out and setting: the value for `Cc1nn2ccc(N3CCC[C@H]3C(F)(F)F)nc2c1C(=O)Nc1cnccn1` [Compound 1046] was not below 350%; that for `Cc1nn2ccc(N3CCC[C@H]3C(F)(F)F)nc2c1C(=O)Nc1cccnc1` [Compound 1047] was not below 350%.
On to `Cc1nn2ccc(N3CCC[C@H]3C(F)(F)F)nc2c1C(=O)Nc1ccncn1` [Compound 1048], for which the Emax was not below 350%.
Same read-out and setting: the same measure for `COc1nccc(NC(=O)c2c(C)nn3ccc(N4CCC[C@H]4C(F)(F)F)nc23)n1` [Compound 1049]: not below 350%; for `Cc1nn2ccc(N3CCC[C@H]3C(F)(F)F)nc2c1C(=O)Nc1cncc(F)c1` [Compound 1050]: not below 350%; for `COc1nccc(NC(=O)c2cnc3ccc(N4CCC[C@@H]4C)nn23)n1` [Compound 1051]: less than 350%.
`C[C@H]1CCCN1c1ccc2ncc(C(=O)Nc3ccc(F)cn3)n2n1` [Compound 1052]: the Emax was less than 350%.
Take `C[C@H]1CCCN1c1ccc2ncc(C(=O)Nc3ccccn3)n2n1` [Compound 1053]: the Emax was not below 350%.
Turning to `C[C@H]1CCCN1c1ccc2ncc(C(=O)Nc3cnccn3)n2n1` [Compound 1054], the Emax was less than 350%.
Consider `C[C@H]1CCCN1c1ccc2ncc(C(=O)Nc3cccnn3)n2n1` [Compound 1055], for which the Emax is not below 350%.
With `C[C@H]1CCCN1c1ccc2ncc(C(=O)Nc3cccnc3)n2n1` [Compound 1056], the Emax is less than 350%.
`C[C@H]1CCCN1c1ccc2ncc(C(=O)Nc3ccncn3)n2n1` [Compound 1057]: the Emax is less than 350%.
The same measure, in the same setting: the value for `Cc1cncc(NC(=O)c2cnc3ccc(N4CCC[C@@H]4C)nn23)c1` [Compound 1058] was less than 350%.
Consider `C[C@H]1CCCN1c1ccc2ncc(C(=O)Nc3cncc(F)c3)n2n1` [Compound 1059], for which the Emax was less than 350%.
Regarding `O=C(Nc1ccccn1)c1cnn2ccc(N3CCC(C(F)(F)F)CC3)nc12` [Compound 1060], the Emax is not below 350%.
As to `O=C(Nc1cnccn1)c1cnn2ccc(N3CCC(C(F)(F)F)CC3)nc12` [Compound 1061], the Emax is not below 350%.
As for `O=C(Nc1cccnn1)c1cnn2ccc(N3CCC(C(F)(F)F)CC3)nc12` [Compound 1062], the Emax was not below 350%.
In the case of `O=C(Nc1ccncn1)c1cnn2ccc(N3CCC(C(F)(F)F)CC3)nc12` [Compound 1063], the Emax was not below 350%.
Turning to `COc1nccc(NC(=O)c2cnn3ccc(N4CCC(C(F)(F)F)CC4)nc23)n1` [Compound 1064], the Emax is not below 350%.
As to `Cc1nc(NC(=O)c2cnn3ccc(N4CCC(C(F)(F)F)CC4)nc23)sc1C` [Compound 1065], the Emax was not below 350%.
`O=C(Nc1cccnc1)c1cnn2ccc(N3CCC(C(F)(F)F)CC3)nc12` [Compound 1066]: the Emax was not below 350%.
For the compound `O=C(Nc1cncc(F)c1)c1cnn2ccc(N3CCC(C(F)(F)F)CC3)nc12` [Compound 1067], the Emax was not below 350%.
For the compound `Cc1nn2ccc(N3CCC[C@@H]3C(F)(F)F)nc2c1C(=O)Nc1ccncn1` [Compound 1068], the Emax was not below 350%.
Consider `Cc1nn2ccc(N3CCC[C@@H]3C(F)(F)F)nc2c1C(=O)Nc1cncc(F)c1` [Compound 1069], for which the Emax was not below 350%.
With `Cc1nn2ccc(N3CCC[C@@H]3C(F)(F)F)nc2c1C(=O)Nc1ccccn1` [Compound 1070], the Emax is not below 350%.
On to `Cc1nn2ccc(N3CCC[C@@H]3C(F)(F)F)nc2c1C(=O)Nc1cccnc1` [Compound 1071], for which the Emax was not below 350%.
As to `Cc1cncc(NC(=O)c2c(C)nn3ccc(N4CCC[C@@H]4C(F)(F)F)nc23)c1` [Compound 1072], the Emax was not below 350%.
In the case of `Cc1cncc(NC(=O)c2cnn3ccc(N4CCC(C(F)(F)F)CC4)nc23)c1` [Compound 1073], the Emax is not below 350%.
As to `O=C(Nc1cc(-c2cnco2)ccn1)c1cnn2ccc(N3CCC(C(F)(F)F)CC3)nc12` [Compound 1074], the Emax is not below 350%.
The same measure, in the same setting: the same measure for `Cc1nn2ccc(N3CCC[C@@H]3C(F)(F)F)nc2c1C(=O)Nc1cccnn1` [Compound 1075]: not below 350%.
As for `O=C(Nc1cccnc1)c1cnn2ccc(N3CCC[C@@H]3C(F)(F)F)nc12` [Compound 1076], the Emax is not below 350%.
Regarding `Cc1cncc(NC(=O)c2cnn3ccc(N4CCC[C@@H]4C(F)(F)F)nc23)c1` [Compound 1077], the Emax was not below 350%.
The same measure, in the same setting: the value for `O=C(Nc1cnccn1)c1cnn2ccc(N3CCC[C@@H]3C(F)(F)F)nc12` [Compound 1078] was not below 350%; that for `O=C(Nc1cccnn1)c1cnn2ccc(N3CCC[C@@H]3C(F)(F)F)nc12` [Compound 1079] was not below 350%; that for `COc1nccc(NC(=O)c2cnn3ccc(N4CCC[C@@H]4C(F)(F)F)nc23)n1` [Compound 1080] was not below 350%.
Take `O=C(Nc1cccc(-c2cnco2)n1)c1cnn2ccc(N3CCC[C@@H]3C(F)(F)F)nc12` [Compound 1081]: the Emax is not below 350%.
On to `Cc1nc(NC(=O)c2c(C)nn3ccc(N4CCC[C@@H]4C(F)(F)F)nc23)sc1C` [Compound 1082], for which the Emax was not below 350%.
Consider `O=C(Nc1cccc(-c2cnco2)n1)c1cnn2ccc(N3CCC(C(F)(F)F)CC3)nc12` [Compound 1083], for which the Emax was not below 350%.
In the case of `Cc1nn2ccc(N3CCC[C@@H]3C(F)(F)F)nc2c1C(=O)Nc1cnccn1` [Compound 1084], the Emax is not below 350%.
The same measure, in the same setting: the value for `COc1nccc(NC(=O)c2c(C)nn3ccc(N4CCC[C@@H]4C(F)(F)F)nc23)n1` [Compound 1085] was not below 350%.
Regarding `Cc1nn2ccc(N3CCC[C@@H]3C(F)(F)F)nc2c1C(=O)Nc1cccc(-c2cnco2)n1` [Compound 1086], the Emax is not below 350%.
Same read-out and setting: the value for `Cc1nn2ccc(N3CCC[C@@H]3C(F)(F)F)nc2c1C(=O)Nc1cc(-c2cnco2)ccn1` [Compound 1087] was not below 350%.
`Cc1nc(NC(=O)c2cnn3ccc(N4CCC[C@@H]4C(F)(F)F)nc23)sc1C` [Compound 1088]: the Emax is not below 350%.
As for `O=C(Nc1cncc(F)c1)c1cnn2ccc(N3CCC[C@@H]3C(F)(F)F)nc12` [Compound 1089], the Emax is less than 350%.
Regarding `O=C(Nc1ccccn1)c1cnn2ccc(N3CCC[C@@H]3C(F)(F)F)nc12` [Compound 1090], the Emax was less than 350%.
Same read-out and setting: the value for `O=C(Nc1cc(-c2cnco2)ccn1)c1cnn2ccc(N3CCC[C@@H]3C(F)(F)F)nc12` [Compound 1091] was not below 350%; that for `Cn1cc2ccc(NC(=O)c3cnc4ccc(N5CCCC5C(F)(F)F)nn34)cc2n1` (stereo not shown) [Compound 1092] was not below 350%; that for `O=C(Nc1ccncn1)c1cnn2ccc(N3CCC[C@@H]3C(F)(F)F)nc12` [Compound 1093] was less than 350%.
For the compound `CN1CCc2ncc(NC(=O)c3cnc4ccc(N5CCCC5C(F)(F)F)nn34)cc2C1` (stereo not shown) [Compound 1094], the Emax is not below 350%.
As for `O=C(Nc1cnc2c(c1)COCC2)c1cnc2ccc(N3CCCC3C(F)(F)F)nn12` (stereo not shown) [Compound 1095], the Emax is not below 350%.
Turning to `O=C(Nc1nc2c(s1)CCCC2)c1cnc2ccc(N3CCCC3C(F)(F)F)nn12` (stereo not shown) [Compound 1096], the Emax was not below 350%.
With `O=C(Nc1cccc2c1COB2O)c1cnc2ccc(N3CCCC3C(F)(F)F)nn12` (stereo not shown) [Compound 1097], the Emax was not below 350%.
`O=C(Nc1cc(-c2cnco2)ccn1)c1cnc2ccc(N3CCCC3C(F)(F)F)nn12` (stereo not shown) [Compound 1098]: the Emax is not below 350%.
For the compound `O=C(Nc1cccc(-c2cnco2)n1)c1cnc2ccc(N3CCCC3C(F)(F)F)nn12` (stereo not shown) [Compound 1099], the Emax is not below 350%.

(Values after patent US9957271B2, “Substituted bicyclic aza-heterocycles and analogues as sirtuin modulators” (GlaxoSmithKline, LLC, priority 2012, dated 2018).)
